Consider 22 compounds from PMC12041489 (Scientific Reports, 2025).

Like-named read-outs stand apart in the source and are kept apart here.

By IC50 is commonly meant the point on the concentration scale where inhibition reaches its midpoint.

The target of assay [1] is T1, mushroom tyrosinase (Agaricus bisporus, UniProt C7FF04). Particulars: read-out: Tyrosinase inhibitory activity IC50.
Assay [2] concerns the target T1, mushroom tyrosinase. Kind of assay: biochemical.
For another assay, the system named is fresh-cut apples. The assay can be described thus: Anti-browning experiment on fresh-cut apples. Particulars: 50 µM, stored at 5 °C for 4 days. More on the design: species or system Fuji apples.

T1 sequence (C7FF04 1-392 limits assumed): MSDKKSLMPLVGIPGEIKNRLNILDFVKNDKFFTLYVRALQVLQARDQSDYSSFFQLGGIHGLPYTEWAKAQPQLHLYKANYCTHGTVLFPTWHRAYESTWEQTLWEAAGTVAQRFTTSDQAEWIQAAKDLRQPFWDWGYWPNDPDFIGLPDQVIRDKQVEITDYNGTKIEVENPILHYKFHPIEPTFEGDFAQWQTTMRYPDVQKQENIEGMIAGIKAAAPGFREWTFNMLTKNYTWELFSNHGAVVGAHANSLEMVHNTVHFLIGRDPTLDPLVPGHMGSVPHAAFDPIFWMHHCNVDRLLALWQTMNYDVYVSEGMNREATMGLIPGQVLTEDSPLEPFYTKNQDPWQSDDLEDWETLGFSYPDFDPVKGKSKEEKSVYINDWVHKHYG

As for `Cc1ccccc1CC(=O)Nc1nnc(SCc2cn(Cc3cc(=O)c(O)co3)nn2)s1` [Compound 6j, N-(5-(((1-((5-hydroxy-4-oxo-4H-pyran-2-yl)methyl)-1H-1,2,3-triazol-4-yl)met-hyl)thio)-1,3,4-thiadiazol-2-yl)-2-(o-tolyl)acetamide], the IC50 at mushroom tyrosinase [1] is 17.26 ± 0.038 µM.

With `Cc1cccc(CC(=O)Nc2nnc(SCc3cn(Cc4cc(=O)c(O)co4)nn3)s2)c1` [Compound 6k, N-(5-(((1-((5-hydroxy-4-oxo-4H-pyran-2-yl)methyl)-1H-1,2,3-triazol-4-yl)met-hyl)thio)-1,3,4-thiadiazol-2-yl)-2-(m-tolyl)acetamide], the IC50 at mushroom tyrosinase [1] was 13.81 ± 0.066 µM.

For `Cc1ccc(CC(=O)Nc2nnc(SCc3cn(Cc4cc(=O)c(O)co4)nn3)s2)cc1` [Compound 6l, N-(5-(((1-((5-hydroxy-4-oxo-4H-pyran-2-yl)methyl)-1H-1,2,3-triazol-4-yl)met-hyl)thio)-1,3,4-thiadiazol-2-yl)-2-(p-tolyl)acetamide], the IC50 on mushroom tyrosinase [1] came out at 3.289 ± 0.011 µM.

Regarding `COc1ccc(CC(=O)Nc2nnc(SCc3cn(Cc4cc(=O)c(O)co4)nn3)s2)cc1` [Compound 6p, N-(5-(((1-((5-hydroxy-4-oxo-4H-pyran-2-yl)methyl)-1H-1,2,3-triazol-4-yl)met-hyl)thio)-1,3,4-thiadiazol-2-yl)-2-(4-methoxyphenyl)acetamide], the IC50 at mushroom tyrosinase [1] was determined as 3.832 ± 0.005 µM.

`CC(=O)c1cccc(OCc2cn(Cc3cc(=O)c(O)co3)nn2)c1` [Compound 13b, 2-((4-((3-acetylphenoxy)methyl)-1H-1,2,3-triazol-1-yl)methyl)-5-hydroxy-4H-pyran-4-one] yielded a concentration for half-maximal inhibition (IC50) against mushroom tyrosinase [2] of 4.604 ± 0.046 µM.

Take `O=Cc1ccc(OCc2cn(Cc3cc(=O)c(O)co3)nn2)cc1` [Compound 13c, 4-((1-((5-hydroxy-4-oxo-4H-pyran-2-yl)methyl)-1H-1,2,3-triazol-4-yl)methoxy)benzaldehyde]: on mushroom tyrosinase [2], inhibition was half-maximal at 4.55 ± 0.062 µM (IC50).

Turning to `CC(=O)c1ccc(OCc2cn(Cc3cc(=O)c(O)co3)nn2)cc1` [Compound 13d, 2-((4-((4-acetylphenoxy)methyl)-1H-1,2,3-triazol-1-yl)methyl)-5-hydroxy-4H-pyran-4-one], on mushroom tyrosinase [2], the IC50 came out at 9.908 ± 0.044 µM.

For the compound `CC(=O)c1ccc(OCc2cn(Cc3cc(=O)c(O)co3)nn2)c(C)c1` [Compound 13e, 2-((4-((4-acetyl-2-methylphenoxy)methyl)-1H-1,2,3-triazol-1-yl)methyl)-5-hydr-oxy-4H-pyran-4-one], the IC50 on mushroom tyrosinase [1] was 1.74 ± 0.048 µM.

Turning to `O=Cc1ccc(F)cc1OCc1cn(Cc2cc(=O)c(O)co2)nn1` [Compound 13f, 4-fluoro-2-((1-((5-hydroxy-4-oxo-4H-pyran-2-yl)methyl)-1H-1,2,3-triazol-4-yl)methoxy)benzaldehyde], on mushroom tyrosinase [2], half-maximal inhibition (IC50) required 5.961 ± 0.036 µM.

On mushroom tyrosinase [2], `O=Cc1ccccc1OCc1cn(Cc2cc(=O)c(O)co2)nn1` [Compound 13g, 2-((1-((5-hydroxy-4-oxo-4H-pyran-2-yl)methyl)-1H-1,2,3-triazol-4-yl)methoxy)benzaldehyde] displayed a half-maximal inhibitory concentration (IC50) of 2.1 ± 0.078 µM.

Regarding `COc1ccc(C=O)c(OCc2cn(Cc3cc(=O)c(O)co3)nn2)c1` [Compound 13j, 2-((1-((5-hydroxy-4-oxo-4H-pyran-2-yl)methyl)-1H-1,2,3-triazol-4-yl)methox-y)-4-methoxybenzaldehyde], on mushroom tyrosinase [1], the IC50 was determined as 2.817 ± 0.007 µM.

Consider `CC(=O)c1ccccc1OCc1cn(Cc2cc(=O)c(O)co2)nn1` [Compound 13k, 2-((4-((2-acetylphenoxy)methyl)-1H-1,2,3-triazol-1-yl)methyl)-5-hydroxy-4H-pyran-4-one], for which the IC50 against mushroom tyrosinase [2] was found to be 1.517 ± 0.01 µM.

Compound `CC(C)(C)c1cccc(C=O)c1OCc1cn(Cc2cc(=O)c(O)co2)nn1` [Compound 13l, 3-(tert-butyl)-2-((1-((5-hydroxy-4-oxo-4H-pyran-2-yl)methyl)-1H-1,2,3-triazol-4-yl)methoxy)benzaldehyde] returned a half-maximal inhibitory concentration (IC50) against mushroom tyrosinase [2] of 4.98 ± 0.057 µM.

As for `O=Cc1ccc(Cl)cc1OCc1cn(Cc2cc(=O)c(O)co2)nn1` [Compound 13m, 4–CHloro-2-((1-((5-hydroxy-4-oxo-4H-pyran-2-yl)methyl)-1H-1,2,3-triazol-4-yl)methoxy)benzaldehyde], the IC50 on mushroom tyrosinase [2] turned out to be 4.571 ± 0.004 µM.

For the compound `CC(=O)c1ccc(C)cc1OCc1cn(Cc2cc(=O)c(O)co2)nn1` [Compound 13n, 2-((4-((2-acetyl-5-methylphenoxy)methyl)-1H-1,2,3-triazol-1-yl)methyl)-5-hy-droxy-4H-pyran-4-one], the IC50 on mushroom tyrosinase [1] stood at 6.818 ± 0.027 µM.

`CC(=O)c1cc(C)ccc1OCc1cn(Cc2cc(=O)c(O)co2)nn1` [Compound 13o, 2-((4-((2-acetyl-4-methylphenoxy)methyl)-1H-1,2,3-triazol-1-yl)methyl)-5-hy-droxy-4H-pyran-4-one]: at mushroom tyrosinase [1], the IC50 amounted to 1.83 ± 0.042 µM.

As to `O=Cc1ccc(Br)cc1OCc1cn(Cc2cc(=O)c(O)co2)nn1` [Compound 13p, 4-bromo-2-((1-((5-hydroxy-4-oxo-4H-pyran-2-yl)methyl)-1H-1,2,3-triazol-4-yl)methoxy)benzaldehyde], the IC50 at mushroom tyrosinase [2] is 4.231 ± 0.029 µM.

Regarding `CC(=O)c1ccc(Cl)cc1OCc1cn(Cc2cc(=O)c(O)co2)nn1` [Compound 13q, 2-((4-((2-acetyl-5–CHlorophenoxy)methyl)-1H-1,2,3-triazol-1-yl)methyl)-5-hy-droxy-4H-pyran-4-one], the half-maximal inhibitory concentration (IC50) on mushroom tyrosinase [1] worked out at 3.03 ± 0.059 µM.

Consider `CC(=O)c1ccc(Br)cc1OCc1cn(Cc2cc(=O)c(O)co2)nn1` [Compound 13r, 2-((4-((2-acetyl-5-bromophenoxy)methyl)-1H-1,2,3-triazol-1-yl)methyl)-5-hy-droxy-4H-pyran-4-one], for which, at mushroom tyrosinase [1], the half-inhibitory concentration (IC50) came to 3.33 ± 0.057 µM.

Turning to `CC(=O)c1ccc(F)cc1OCc1cn(Cc2cc(=O)c(O)co2)nn1` [Compound 13s, 2-((4-((2-acetyl-5-fluorophenoxy)methyl)-1H-1,2,3-triazol-1-yl)methyl)-5-hy-droxy-4H-pyran-4-one], the IC50 at mushroom tyrosinase [1] worked out at 2.58 ± 0.049 µM.

`O=c1cc(CO)occ1O` [Kojic acid, kojic acid, reference compound]: the “L* value of fresh-cut apples” value with fresh-cut apples is 63.04.

For the compound `O=C1O[C@H]([C@@H](O)CO)C(O)=C1O` [Vc, ascorbic acid, reference compound], the “L* value of fresh-cut apples” value in the assay with fresh-cut apples is on record as 63.58.
